Patent US20230220387A1, “D-SERINE TRANSPORT MODIFIER AND SCREENING METHOD THEREOF, AND SCREENING METHOD OF D-SERINE TRANSPORTER PROTEIN” (Kagami Inc., priority 2019, published 2023)
“Also recorded” adds a separate entry of the source.

Columns and labels:
Format in all cases: cell-based
[1] = test system: FlpIn293TR-hSLC5A12-3×FLAG (SMCT2)-stable cell line; test: Toxicity test (XTT) in SMCT2-stable cell line; conditions: FlpIn293TR-Mock or SMCT2-stable cell line; SMCT2 cells compared to Mock cells
Experimental: (§1) A toxicity test for stable cells was carried out using an FlpIn293TR-stable cell line. The cells were seeded in a poly-D-lysine-coated 96-well plate at 6.5×10^3 cells/well (Mock) and 8×10^3 cells/well (hSLC5A8 and hSLC5A12 cells), while in antibiotic-free DMEM+dialyzed FBS medium. After 24 hours, they were treated with L- or D-serine at different concentrations and 1 mg/L of doxycycline hyclate was added to induce recombination gene expression. For the ASCT2 knockdown experiment, the seeded cells were transfected after 12 hours with ASCT2 siRNA at 2 pmol/well, using Lipofectamine 3000. The effect of ibuprofen was analyzed by simultaneous addition with D-serine treatment. The cells were cultured for 2 days to 80% confluence. The proliferated cell count was determined by XTT measurement in the same manner as described above.

[2] = test system: HEK293 cells transiently transfected with pCMV14-hSLC5A8-3×FLAG (SMCT1); test: D-serine toxicity test in transient expression system, SMCT1; conditions: SMCT1-expressing HEK293 cells; 2 days; XTT
Experimental: (§2) 2-4. Cell survival measurement A D-serine toxicity test was carried out using HEK293 in a transient expression system. The cells were seeded in a 96-well plate at 10,000 cells/well, and transfected with […] DNA (pCMV14 as Mock, pCMV14-hSLC5A8-3×FLAG as SMCT1 and pCMV14-hSLC5A12-3×FLAG as SMCT2). At 24 hours after transfection they were treated with D-serine and further incubated for 2 days. The proliferated cell count was determined by XTT measurement. The XTT solution comprised 1 mg/ml of XTT (2,3-Bis-(2-Methoxy-4-nitro-5-sulfophenyl)-2H-tetrazolium-5-carboxanilide, disodium salt: Biotium, CA, USA) mixed with 7.5 μg/ml of Phenazine methosulfate (Nacalai Tesque, Inc.), and was added to the cultured cells. The incubation reaction was carried out for 4 hours at 37° C., 5% CO2. The absorbance at 450 nm was then measured with a microplate reader.

[3] = test system: FlpIn293TR-hSLC5A8-3×FLAG (SMCT1)-stable cell line; test: Toxicity test (XTT) in SMCT1-stable cell line; conditions: SMCT1 cells compared to Mock cells
Experimental: as §1

Flp-In TREx293 cells = test: Cell proliferation by XTT assay in Flp-In TREx293 cells treated with L- or D-serine
Experimental: as §2, §1

[4] = test system: HEK293 cells transiently transfected with a cDNA clone of a transporter candidate; test: Cytotoxicity test (XTT) for screening of D-serine transporter candidates
Experimental: as §2
A total of 19 D-serine transporter candidates were selected from the proteome results. A cytotoxicity test for screening of D-serine transporter was developed based on the idea that intracellular D-serine accumulated via D-serine transporter function induces cytotoxicity. HEK293 cells were transiently transfected with a cDNA clone and the cells were treated with 15 mM or 25 mM D-serine to observe the initial stage and stationary stage of the toxicity effect. […]

[5] = test system: HEK293 cells transiently transfected with pCMV14-hSLC5A12-3×FLAG (SMCT2); test: D-serine toxicity test in transient expression system, SMCT2; conditions: SMCT2-expressing HEK293 cells; 2 days; XTT
Experimental: as §2

HEK293 cells = test: [3H]D-serine transport in HEK293 cells; conditions: endogenous ASCT2
Experimental: (§3) The cell lines HEK293 and Flp-In TREx 293 were cultured at 37° C. in a 5% CO2 environment, using Dulbecco's Modified Eagle Medium (DMEM) containing 10% fetal bovine serum (FBS), 100 units/ml Penicillin G and 100 μg/ml streptomycin (P/S). The cells were seeded in a Poly-D-lysine coated 24-well plate at 6×10^4 cells/well. After culturing for 3 days in DMEM Medium containing 10% FBS and P/S, the cell were used for transport activity measurement. Before transport activity measurement, the cells were washed with transport activity measurement buffer (PBS+1 g/L D-glucose) prewarmed to 37° C. and incubated for 10 minutes at 37° C. in 500 μL of buffer. The transport activity measurement was initiated by addition of D-[^3H]serine-containing transport activity buffer at the indicated concentration. The reaction product produced after addition was incubated at 37° C. for the indicated time. The reaction was suspended by removing the D-[^3H]serine-containing transport activity buffer, and the product was washed 3 times with thoroughly cooled transport activity buffer. The cells were dissolved with 500 μL of 0.1 N NaOH and incubated for at least one hour. Protein concentration of the cell lysate was measured by BCA protein assay. The lysate was mixed with 1 mL of Emulsifier Safe (PerkinElmer, MA, USA) and the radioactivity of the lysate was measured with a β-scintillation counter (LSC-8000, Hitachi). In transport activity measurement for Na^+, HBSS (+Na^+: 125 mM NaCl, −Na^+: choline chloride, 4.8 mM KCl, 1.2 mM MgSO4, 1.2 mM KH2PO4, 1.3 mM CaCl2), 5.6 mM D-glucose and 25 mM HEPES was used instead of PBS. For the inhibition experiment, a non-radioactive labeled compound was included as the uptake substrate as shown in the drawing.

[6] = test system: Flp-In TREx 293 cell line; test: D-[3H]serine uptake in Flp-In TREx 293 cell line in the presence of inhibitors; conditions: 10 minutes
Experimental: as §3

ASCT2 = biological target: T1, ASCT2 (Homo sapiens, UniProt Q15758); test: [3H]D-serine transport in HEK293 cells transfected with ASCT2
T1 construct: expressed in transfected cells; host or cells: HEK293 cells
T1 sequence (Q15758 1-541): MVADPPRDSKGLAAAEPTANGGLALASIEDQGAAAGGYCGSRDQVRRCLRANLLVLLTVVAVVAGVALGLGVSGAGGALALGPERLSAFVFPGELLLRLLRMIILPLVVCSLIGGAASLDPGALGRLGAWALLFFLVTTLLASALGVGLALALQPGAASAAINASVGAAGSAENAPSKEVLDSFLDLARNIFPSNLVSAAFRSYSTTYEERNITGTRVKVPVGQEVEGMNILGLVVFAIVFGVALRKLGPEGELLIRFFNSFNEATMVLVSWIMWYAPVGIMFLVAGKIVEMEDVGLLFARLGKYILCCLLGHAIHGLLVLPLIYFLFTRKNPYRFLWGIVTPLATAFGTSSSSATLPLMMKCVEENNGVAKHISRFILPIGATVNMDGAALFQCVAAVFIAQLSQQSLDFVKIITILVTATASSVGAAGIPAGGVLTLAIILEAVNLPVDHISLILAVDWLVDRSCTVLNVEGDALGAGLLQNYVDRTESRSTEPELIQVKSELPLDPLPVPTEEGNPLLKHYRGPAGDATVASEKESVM
Experimental: The cell lines HEK293 and Flp-In TREx 293 were cultured at 37° C. in a 5% CO2 environment, using Dulbecco's Modified Eagle Medium (DMEM) containing 10% fetal bovine serum (FBS), 100 units/ml Penicillin G and 100 μg/ml streptomycin (P/S). The cells were seeded in a Poly-D-lysine coated 24-well plate at 6×10^4 cells/well. After culturing for 3 days in DMEM Medium containing 10% FBS and P/S, the cell were used for transport activity measurement. Before transport activity measurement, the cells were washed with transport activity measurement buffer (PBS+1 g/L D-glucose) prewarmed to 37° C. and incubated for 10 minutes at 37° C. in 500 μL of buffer. The transport activity measurement was initiated by addition of D-[^3H]serine-containing transport activity buffer at the indicated concentration. The reaction product produced after addition was incubated at 37° C. for the indicated time. The reaction was suspended by removing the D-[^3H]serine-containing transport activity buffer, and the product was washed 3 times with thoroughly cooled transport activity buffer. […] Protein concentration of the cell lysate was measured by BCA protein assay. The lysate was mixed with 1 mL of Emulsifier Safe (PerkinElmer, MA, USA) and the radioactivity of the lysate was measured with a β-scintillation counter (LSC-8000, Hitachi). […]

[7] = test system: ASCT2-knockout HAP1 cells; test: D-serine transport in ASCT2-knockout HAP1 cells
Excerpt: In order to establish positive candidates for D-serine transporter it was attempted to elucidate the transport function in a cell model. ASCT2 is expressed in several cell lines, constituting a strong background of D-serine accumulation and interfering with identification of novel D-serine transporters. HAP1 cells (Horizon Discovery), which are an essentially haploid cell line, can be advantageously used as a cell model for this purpose. Genetic modification is facilitated since almost all of the chromosomes are single copies, while their transcriptome analysis methods have been established and several gene knockout cell lines can be used. ASCT2-knockout HAP1 cells were therefore obtained and used as a model for D-serine screening.
The ASCT2-knockout HAP1 cells had weaker D-serine uptake compared to wild type cells (FIG. 17(A)). However, D-serine transport background was still observed in the ASCT2-knockout HAP1 cells. Proteome analysis of the HAP1 cells (Table 2) was used to detect expression of both SNAT1 and SNAT2. SNAT1 and SNAT2 belong to the “system A family” of sodium-dependent small amino acid transporters. We considered that SNAT may contribute to D-serine transport in HAP1 cells. In order to verify this hypothesis, the inhibiting effect of the system A inhibitor MeAIB on D-serine transport was examined.

| SMILES | cell proliferation effect by serine treatment [1] | cytotoxicity compared to the Mock cells [2] | cell proliferation effect by D-serine treatment [3] | D-serine toxicity with respect to cell proliferation (Flp-In TREx293 cells; ASCT2 knockdown cells (ASCT2-siRNA) compared with control cells, 2 days, XTT) | EC50 (Flp-In TREx293 cells; Flp-In-T-REx-293, 48 h, 2 days treatment, XTT assay, read-out: EC50 for cell proliferation reduction) | D-serine toxicity effect compared with Mock cells ([4]; 15 mM D-serine, cells transfected with SMCT2, CAT1, TAT1 and SNAT2, 2 days) | D-serine toxicity effect compared with Mock cells ([4]; 25 mM D-serine, cells transfected with GLUT5, SMCT1, SMCT2, CAT1, THTR2 and SNAT2, 2 days) | cytotoxicity compared to the Mock cells [5] | [3H]D-serine transport (HEK293 cells) | Uptake of D-[3H]serine [6] | [3H]D-serine transport (ASCT2) | cell proliferation (Flp-In TREx293 cells; Flp-In TREx 293 control cells, 2 days, XTT) | D-serine transport [7] |
| --- | --- | --- | --- | --- | --- | --- | --- | --- | --- | --- | --- | --- | --- |
| N[C@H](CO)C(=O)O [D-serine] | decrease in cell proliferation; also recorded: lowered proliferation more than in the Mock cells | higher cytotoxicity | lowered proliferation more than in the Mock cells | alleviated | 18.7 mM | increased toxicity | significant toxicity | higher cytotoxicity |  |  |  |  |  |
| N[C@@H](CO)C(=O)O [L-serine] | did not affect cell proliferation |  |  |  |  |  |  |  | inhibited | inhibited | notably inhibited | no effect |  |
| CNC(C)(C)C(=O)O [MeAIB, α-Methylaminoisobutyric acid] |  |  |  |  |  |  |  |  | not inhibited | not inhibited |  |  | notably reduced |
